Source: patent publication US12083227B2, “Solid pharmaceutical formulations for treating endometriosis, uterine fibroids, polycystic ovary syndrome or adenomyosis” (priority 2017, dated 2024)

What was measured:
[1] = drug interaction studies: co-administered drug in the presence of elagolix
Experimental: Drug interaction studies were performed with elagolix and other drugs that are likely to be co-administered and with drugs commonly used as probes for pharmacokinetic interactions.

[2] = gel formation and pH of elagolix sodium solution; format: physicochemical
Experimental: 1.23 gram of elagolix sodium was added to 2 mL purified water in a test tube. […] To facilitate continued dissolution, the solution was stirred and the gel was dispersed continuously using a spatula. The solution pH was measured with undissolved solid present using a calibrated pH meter.

[3] = Ethinyl estradiol 35 mcg and triphasic norgestimate 0.18/0.215/0.25 mg once daily, elagolix 150 mg once daily, N 21
[4] = 0.5 mg single dose, elagolix 200 mg twice daily × 10 days, N 11
[5] = 2 mg single dose, elagolix 150 mg once daily × 13 days, N 11
[6] = 2 mg single dose, elagolix 300 mg twice daily × 11 days, N 20
[7] = 0.35 mg once daily × 112 days, elagolix 150 mg once daily × 56 days, N 32
[8] = 20 mg once daily, elagolix 300 mg twice daily × 7 days, N 10

## C#C[C@]1(O)CC[C@H]2[C@@H]3CCC4=CC(=NO)CC[C@@H]4[C@H]3CC[C@@]21CC (mixture of isomers) [Norelgestromin]
[1]; [3]
  AUC Ratio (with elagolix vs. medication alone): 0.85
  Cmax Ratio (with elagolix vs. medication alone): 0.87

## C#CC1(O)CC[C@H]2[C@@H]3CCC4=CC(=O)CC[C@@H]4[C@H]3CC[C@@]21CC (mixture of isomers) [Norgestrel]
[1]; [3]
  AUC Ratio (with elagolix vs. medication alone): 0.92
  Cmax Ratio (with elagolix vs. medication alone): 0.89

## C[C@H]1O[C@@H](O[C@H]2[C@@H](O)C[C@H](O[C@H]3[C@@H](O)C[C@H](O[C@H]4CC[C@@]5(C)[C@H](CC[C@@H]6[C@@H]5C[C@@H](O)[C@]5(C)[C@@H](C7=CC(=O)OC7)CC[C@]65O)C4)O[C@@H]3C)O[C@@H]2C)C[C@H](O)[C@@H]1O [Digoxin]
[1]; [4]
  AUC Ratio (with elagolix vs. medication alone): 1.26
  Cmax Ratio (with elagolix vs. medication alone): 1.71

## C#C[C@]1(O)CC[C@H]2[C@@H]3CCc4cc(O)ccc4[C@H]3CC[C@@]21C [Ethinyl Estradiol]
[1]; [3]
  AUC Ratio (with elagolix vs. medication alone): 1.30
  Cmax Ratio (with elagolix vs. medication alone): 1.15

## Cc1ncc2n1-c1ccc(Cl)cc1C(c1ccccc1F)=NC2 [Midazolam]
[1]; [5]
  AUC Ratio (with elagolix vs. medication alone): 0.65
  Cmax Ratio (with elagolix vs. medication alone): 0.81
[1]; [6]
  AUC Ratio (with elagolix vs. medication alone): 0.46
  Cmax Ratio (with elagolix vs. medication alone): 0.56

## C#C[C@]1(O)CC[C@H]2[C@@H]3CCC4=CC(=O)CC[C@@H]4[C@H]3CC[C@@]21C [Norethindrone]
[1]; [7]
  AUC Ratio (with elagolix vs. medication alone): 0.88
  Cmax Ratio (with elagolix vs. medication alone): 0.95

## CC(C)c1nc(N(C)S(C)(=O)=O)nc(-c2ccc(F)cc2)c1/C=C/[C@@H](O)C[C@@H](O)CC(=O)O [Rosuvastatin]
[1]; [8]
  AUC Ratio (with elagolix vs. medication alone): 0.60
  Cmax Ratio (with elagolix vs. medication alone): 0.99

## COc1cccc(-c2c(C)n(Cc3c(F)cccc3C(F)(F)F)c(=O)n(C[C@H](NCCCC(=O)[O-])c3ccccc3)c2=O)c1F.[Na+] [elagolix sodium, sodium 4-((R)-2-[5-(2-fluoro-3-methoxy-phenyl)-3-(2-fluoro-6-trifluoromethyl-benzyl)-4-methyl-2,6-dioxo-3,6-dihydro-2H-pyrimidin-1-yl]-1-phenyl-ethylamino)butanoate]
[2]; 1.23 gram added to 2 mL purified water
  gel formation during dissolution: started to form gel
[2]; 1.23 gram in 2 mL purified water, undissolved solid present, 20° C.
  pH value of the solution: 9.80
